In PubChem BioAssay (NCI):
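Compound exposure: 48 hours, 5 concentrations, 96-well plates. TGI marks complete inhibition of growth.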 Where a SMILES comes first, the peptide text is derived from it. [ ]: non-standard residue; d: D form. The star is where a group is joined. Bn2Val = CC(C)[C@@H](C(=O)*)N(Cc1ccccc1)Cc1ccccc1; NMeV = CN[C@H](C(=O)O)C(C)C; X29 = COc1ccc(CN*)c(OC)c1; dNMeA = CN[C@H](C)C(=O)O

Columns and labels:
Assay in all cases: NCI tumour cell line growth inhibition, 48 h
PC-3 prostate = test system: PC-3 prostate
HCC-2998 colon = test system: HCC-2998 colon
MDA-MB-231 breast = test system: MDA-MB-231 breast
SNB-75 CNS = test system: SNB-75 CNS
NCI/ADR-RES ovarian = test system: NCI/ADR-RES ovarian
TK-10 renal = test system: TK-10 renal
NCI-H522 lung = test system: NCI-H522 lung
COLO 205 colon = test system: COLO 205 colon
BT-549 breast = test system: BT-549 breast
HL-60(TB) leukemia = test system: HL-60(TB) leukemia
SNB-19 CNS = test system: SNB-19 CNS
SN12C renal = test system: SN12C renal
A498 renal = test system: A498 renal
MDA-N = test system: MDA-N
OVCAR-5 ovarian = test system: OVCAR-5 ovarian
RPMI-8226 leukemia = test system: RPMI-8226 leukemia
ACHN renal = test system: ACHN renal
SF-295 CNS = test system: SF-295 CNS
HCT-15 colon = test system: HCT-15 colon
HOP-62 NSCLC = test system: HOP-62 NSCLC
NCI-H226 lung = test system: NCI-H226 lung
SF-268 CNS = test system: SF-268 CNS
MALME-3M melanoma = test system: MALME-3M melanoma
OVCAR-3 ovarian = test system: OVCAR-3 ovarian
UACC-62 melanoma = test system: UACC-62 melanoma
U251 CNS = test system: U251 CNS
EKVX NSCLC = test system: EKVX NSCLC
SF-539 CNS = test system: SF-539 CNS
SK-MEL-2 melanoma = test system: SK-MEL-2 melanoma
T-47D breast = test system: T-47D breast
786-0 renal = test system: 786-0 renal
HT29 colon = test system: HT29 colon
CAKI-1 renal = test system: CAKI-1 renal
A549 NSCLC = test system: A549 NSCLC
UACC-257 melanoma = test system: UACC-257 melanoma
SK-OV-3 ovarian = test system: SK-OV-3 ovarian
SK-MEL-28 melanoma = test system: SK-MEL-28 melanoma
UO-31 renal = test system: UO-31 renal
SK-MEL-5 melanoma = test system: SK-MEL-5 melanoma
HCT-116 colon = test system: HCT-116 colon
MOLT-4 leukemia = test system: MOLT-4 leukemia
M14 melanoma = test system: M14 melanoma
IGROV1 ovarian = test system: IGROV1 ovarian
MDA-MB-435 = test system: MDA-MB-435
DU-145 prostate = test system: DU-145 prostate
KM12 colon = test system: KM12 colon
OVCAR-4 ovarian = test system: OVCAR-4 ovarian
NCI-H23 lung = test system: NCI-H23 lung
CCRF-CEM leukemia = test system: CCRF-CEM leukemia
HS 578T breast = test system: HS 578T breast
NCI-H460 lung = test system: NCI-H460 lung
MCF7 breast = test system: MCF7 breast
SW-620 colon = test system: SW-620 colon
LOX IMVI melanoma = test system: LOX IMVI melanoma
HOP-92 NSCLC = test system: HOP-92 NSCLC
RXF 393 renal = test system: RXF 393 renal
K-562 leukemia = test system: K-562 leukemia
OVCAR-8 ovarian = test system: OVCAR-8 ovarian

For `C=C1[C@@](C)([C@@H]2CCCS2)[C@H]2C(C)=C[C@]1(C)n1c(=O)n(-c3ccccc3)c(=O)n12`, which TGI (PC-3 prostate) is on record?
Its TGI is over 100 µM.

And the TGI (HCC-2998 colon)?
Its TGI is over 100 µM.

What about the TGI (MDA-MB-231 breast) of the same compound?
Its TGI is over 100 µM.

And the TGI (SNB-75 CNS)?
Its TGI is over 100 µM.

What about the TGI (NCI/ADR-RES ovarian) of the same compound?
Its TGI is over 100 µM.

And the TGI (TK-10 renal)?
The TGI was over 100 µM.

What about the TGI (NCI-H522 lung) of the same compound?
Its TGI is over 100 µM.

And the TGI (COLO 205 colon)?
Its TGI is over 100 µM.

What about the TGI (BT-549 breast) of the same compound?
Its TGI is over 100 µM.

What about the TGI (HL-60(TB) leukemia) of the same compound?
Its TGI is over 100 µM.

And the TGI (SNB-19 CNS)?
Its TGI is over 100 µM.

And the TGI (SN12C renal)?
Its TGI is over 100 µM.

What about the TGI (A498 renal) of the same compound?
The TGI was over 100 µM.

What about the TGI (MDA-N) of the same compound?
Its TGI is over 100 µM.

What about the TGI (OVCAR-5 ovarian) of the same compound?
Its TGI is over 100 µM.

What about the TGI (RPMI-8226 leukemia) of the same compound?
Its TGI is over 100 µM.

And the TGI (ACHN renal)?
The TGI was over 100 µM.

And the TGI (SF-295 CNS)?
The TGI was over 100 µM.

What about the TGI (HCT-15 colon) of the same compound?
The TGI was over 100 µM.

What about the TGI (HOP-62 NSCLC) of the same compound?
Its TGI is over 100 µM.

What about the TGI (NCI-H226 lung) of the same compound?
The TGI was over 100 µM.

And the TGI (SF-268 CNS)?
Its TGI is over 100 µM.

What about the TGI (MALME-3M melanoma) of the same compound?
Its TGI is over 100 µM.

And the TGI (OVCAR-3 ovarian)?
Its TGI is over 100 µM.

What about the TGI (UACC-62 melanoma) of the same compound?
The TGI was over 100 µM.

What about the TGI (U251 CNS) of the same compound?
The TGI was over 100 µM.

And the TGI (EKVX NSCLC)?
Its TGI is over 100 µM.

What about the TGI (SF-539 CNS) of the same compound?
Its TGI is over 100 µM.

What about the TGI (SK-MEL-2 melanoma) of the same compound?
The TGI was over 100 µM.

What about the TGI (T-47D breast) of the same compound?
Its TGI is over 100 µM.

What about the TGI (786-0 renal) of the same compound?
Its TGI is over 100 µM.

What about the TGI (HT29 colon) of the same compound?
Its TGI is over 100 µM.

What about the TGI (CAKI-1 renal) of the same compound?
The TGI was over 100 µM.

What about the TGI (A549 NSCLC) of the same compound?
The TGI was over 100 µM.

What about the TGI (UACC-257 melanoma) of the same compound?
Its TGI is over 100 µM.

What about the TGI (SK-OV-3 ovarian) of the same compound?
Its TGI is over 100 µM.

What about the TGI (SK-MEL-28 melanoma) of the same compound?
Its TGI is over 100 µM.

And the TGI (UO-31 renal)?
The TGI was over 100 µM.

And the TGI (SK-MEL-5 melanoma)?
The TGI was over 100 µM.

And the TGI (HCT-116 colon)?
The TGI was over 100 µM.

And the TGI (MOLT-4 leukemia)?
The TGI was over 100 µM.

What about the TGI (M14 melanoma) of the same compound?
Its TGI is over 100 µM.

And the TGI (IGROV1 ovarian)?
The TGI was over 100 µM.

And the TGI (MDA-MB-435)?
The TGI was over 100 µM.

What about the TGI (DU-145 prostate) of the same compound?
Its TGI is over 100 µM.

What about the TGI (KM12 colon) of the same compound?
Its TGI is over 100 µM.

And the TGI (OVCAR-4 ovarian)?
The TGI was over 100 µM.

And the TGI (NCI-H23 lung)?
Its TGI is over 100 µM.

And the TGI (CCRF-CEM leukemia)?
Its TGI is over 100 µM.

And the TGI (HS 578T breast)?
The TGI was over 100 µM.

What about the TGI (NCI-H460 lung) of the same compound?
Its TGI is over 100 µM.

And the TGI (MCF7 breast)?
Its TGI is over 100 µM.

What about the TGI (SW-620 colon) of the same compound?
Its TGI is over 100 µM.

What does the source list for `COc1ccc(CNC(=O)[C@@H]2CCCN2C(=O)[C@@H](C)N(C)C(=O)[C@H](C(C)C)N(C)C(=O)[C@@H](NC(=O)[C@H](C(C)C)N(Cc2ccccc2)Cc2ccccc2)C(C)C)c(OC)c1` (Bn2Val-V[NMeV][dNMeA]P-X29)?
TGI (PC-3 prostate): 10.1 µM; TGI (HCC-2998 colon): 8.39 µM; TGI (LOX IMVI melanoma): 7.13 µM; TGI (MDA-MB-231 breast): 3.46 µM; TGI (SNB-75 CNS): 7.26 µM; TGI (NCI/ADR-RES ovarian): 12.3 µM; TGI (TK-10 renal): 22.4 µM; TGI (NCI-H522 lung): 24.2 µM; TGI (COLO 205 colon): 5.09 µM; TGI (BT-549 breast): 7.72 µM; TGI (HL-60(TB) leukemia): 2.8 µM; TGI (HOP-92 NSCLC): 9.1 µM; TGI (SNB-19 CNS): 22.8 µM; TGI (SN12C renal): 3.25 µM; TGI (A498 renal): 8.69 µM; TGI (MDA-N): 5.78 µM; TGI (OVCAR-5 ovarian): 3.13 µM; TGI (RPMI-8226 leukemia): 17.2 µM; TGI (ACHN renal): 13.9 µM; TGI (SF-295 CNS): 10.7 µM; TGI (HCT-15 colon): 13.5 µM; TGI (HOP-62 NSCLC): 21.1 µM; TGI (NCI-H226 lung): 22.1 µM; TGI (SF-268 CNS): > 100 µM; TGI (MALME-3M melanoma): 36.7 µM; TGI (OVCAR-3 ovarian): 14.7 µM; TGI (UACC-62 melanoma): 15.4 µM; TGI (U251 CNS): 5.21 µM; TGI (EKVX NSCLC): 12 µM; TGI (SF-539 CNS): 4.69 µM; TGI (RXF 393 renal): 3.94 µM; TGI (SK-MEL-2 melanoma): 3.45 µM; TGI (T-47D breast): 96 µM; TGI (786-0 renal): 11.1 µM; TGI (HT29 colon): 3.26 µM; TGI (CAKI-1 renal): 15.5 µM; TGI (K-562 leukemia): > 100 µM; TGI (A549 NSCLC): > 100 µM; TGI (UACC-257 melanoma): 11.9 µM; TGI (SK-OV-3 ovarian): 63.2 µM; TGI (SK-MEL-28 melanoma): 10.2 µM; TGI (UO-31 renal): 12 µM; TGI (OVCAR-8 ovarian): 57.6 µM; TGI (HCT-116 colon): 9.62 µM; TGI (M14 melanoma): 10.5 µM; TGI (IGROV1 ovarian): 12.6 µM; TGI (MDA-MB-435): 6.61 µM; TGI (DU-145 prostate): 20.7 µM; TGI (KM12 colon): 5.78 µM; TGI (OVCAR-4 ovarian): 14.4 µM; TGI (NCI-H23 lung): 9.3 µM; TGI (HS 578T breast): > 100 µM; TGI (NCI-H460 lung): 15.5 µM; TGI (MCF7 breast): 12 µM; TGI (SW-620 colon): 20.6 µM
